Measurements taken from PubChem BioAssay AID248 (DTP/NCI, 2004).
Inconclusive results and toxic doses are left out. Rule as the data show it: active = T/C of 150% or more; inactive = T/C below 125%.

System: L1210 leukemia ip in BDF1 mice, survival T/C
Test: NCI In Vivo Anticancer Drug Screen. Data for tumor model L1210 Leukemia (intraperitoneal) in B6D2F1 (BDF1) mice
Details: endpoint: mean survival time, higher = longer survival
In short: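 Tumor was transplanted into mice, which were then dosed with test compound or vehicle alone. Survival was recorded for each group, and the treated figure was expressed relative to the control figure.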

[1] = dose: 100.0 mg/kg/injection, schedule: Q04DX003 (ip), vehicle: saline with Tween-80
[2] = dose: 200.0 mg/kg/injection, schedule: Q04DX003 (ip), vehicle: saline with Tween-80
[3] = dose: 400.0 mg/kg/injection, schedule: Q04DX003 (ip), vehicle: saline with Tween-80
[4] = dose: 100.0 mg/kg/injection, schedule: Q01DX009 (ip), vehicle: Klucel (hydroxypropylcellulose) (HPC)
[5] = dose: 100.0 mg/kg/injection, schedule: Q04DX003 (ip), vehicle: Klucel (hydroxypropylcellulose) (HPC)
[6] = dose: 200.0 mg/kg/injection, schedule: Q01DX009 (ip), vehicle: Klucel (hydroxypropylcellulose) (HPC)
[7] = dose: 200.0 mg/kg/injection, schedule: Q04DX003 (ip), vehicle: Klucel (hydroxypropylcellulose) (HPC)
[8] = dose: 400.0 mg/kg/injection, schedule: Q01DX009 (ip), vehicle: Klucel (hydroxypropylcellulose) (HPC)
[9] = dose: 25.0 mg/kg/injection, schedule: Q01DX009 (ip), vehicle: Klucel (hydroxypropylcellulose) (HPC)
[10] = dose: 50.0 mg/kg/injection, schedule: Q01DX009 (ip), vehicle: Klucel (hydroxypropylcellulose) (HPC)
[11] = dose: 5.0 mg/kg/injection, schedule: Q01DX001 (ip), vehicle: saline
[12] = dose: 10.0 mg/kg/injection, schedule: Q01DX001 (ip), vehicle: saline
[13] = dose: 20.0 mg/kg/injection, schedule: Q01DX001 (ip), vehicle: saline
[14] = dose: 100.0 mg/kg/injection, schedule: Q01DX009 (ip), vehicle: saline
[15] = dose: 100.0 mg/kg/injection, schedule: Q04DX003 (ip), vehicle: saline
[16] = dose: 200.0 mg/kg/injection, schedule: Q01DX009 (ip), vehicle: saline
[17] = dose: 200.0 mg/kg/injection, schedule: Q04DX003 (ip), vehicle: saline

Measured: T/C

CCC1(C)N=C(N)N=C(N)N1c1ccc(Cl)c(Cl)c1 (configuration not stated)
inactive: dose: 37.5 mg/kg/injection, schedule: Q04DX003 (ip), vehicle: saline 111 % of control | dose: 75.0 mg/kg/injection, schedule: Q01DX001 (ip), vehicle: saline 103 % of control | dose: 75.0 mg/kg/injection, schedule: Q04DX003 (ip), vehicle: saline 111 % of control | dose: 150.0 mg/kg/injection, schedule: Q01DX001 (ip), vehicle: saline 101 % of control | dose: 150.0 mg/kg/injection, schedule: Q04DX003 (ip), vehicle: saline 105 % of control

c1ccc2cc(Nc3ccc4ccccc4c3)ccc2c1
inactive: dose: 100.0 mg/kg/injection, schedule: Q01DX009 (ip), vehicle: saline with Tween-80 106 % of control | dose: 200.0 mg/kg/injection, schedule: Q01DX009 (ip), vehicle: saline with Tween-80 108 % of control | dose: 400.0 mg/kg/injection, schedule: Q01DX009 (ip), vehicle: saline with Tween-80 101 % of control

COc1cc(Br)c(CC2c3cc(OCc4ccccc4)c(OC)cc3CCN2C)cc1OC (configuration not stated)
inactive: dose: 100.0 mg/kg/injection, schedule: Q04DX003 (ip), vehicle: acetone 112 % of control

COC(=O)C(C#N)Cc1ccccc1Cl (configuration not stated)
inactive: [1] 90 % of control | [2] 96 % of control | [3] 98 % of control

O=C(NCCCCCCCCCCNC(=O)Nc1ccc(C2=NCCN2)cc1)Nc1ccc(C2=NCCN2)cc1
inactive: dose: 62.5 mg/kg/injection, schedule: Q01DX Z (ip), vehicle: carboxymethylcellulose (CMC) 98 % of control | dose: 125.0 mg/kg/injection, schedule: Q01DX Z (ip), vehicle: carboxymethylcellulose (CMC) 98 % of control | dose: 250.0 mg/kg/injection, schedule: Q01DX Z (ip), vehicle: carboxymethylcellulose (CMC) 106 % of control | dose: 500.0 mg/kg/injection, schedule: Q01DX Z (ip), vehicle: carboxymethylcellulose (CMC) 114 % of control

O=C1c2ccccc2-c2ncccc21
inactive: [4] 103 % of control | [5] 98 % of control | [6] 102 % of control | [7] 109 % of control | [8] 92 % of control

C=CCNC(=S)NCc1ccc(Cl)cc1
inactive: [9] 100 % of control | [10] 102 % of control | [4] 94 % of control | dose: 100.0 mg/kg/injection, schedule: Q04DX002 (ip), vehicle: Klucel (hydroxypropylcellulose) (HPC) 111 % of control

O=C(O)C1CC2c3ccccc3C1c1ccccc12 (configuration not stated)
inactive: [9] 90 % of control | [10] 97 % of control | [4] 104 % of control | [5] 90 % of control

COC(=O)C1CC2OC2C(C)C1C(=O)OC (configuration not stated)
inactive: [4] 95 % of control | [6] 103 % of control | [8] 105 % of control

CC(C#N)N(C)C (configuration not stated)
inactive: [11] 96 % of control | [12] 104 % of control | dose: 10.0 mg/kg/injection, schedule: Q01DX009 (ip), vehicle: saline 98 % of control | [13] 102 % of control | dose: 20.0 mg/kg/injection, schedule: Q01DX009 (ip), vehicle: saline 109 % of control | dose: 40.0 mg/kg/injection, schedule: Q01DX009 (ip), vehicle: saline 98 % of control

CNCCOC(c1ccccc1)c1ccccc1C (configuration not stated)
inactive: dose: 3.12 mg/kg/injection, schedule: Q01DX009 (ip), vehicle: saline 107 % of control | [11] 103 % of control | dose: 6.25 mg/kg/injection, schedule: Q01DX009 (ip), vehicle: saline 96 % of control | [12] 100 % of control | dose: 12.5 mg/kg/injection, schedule: Q01DX009 (ip), vehicle: saline 101 % of control | [13] 105 % of control | dose: 25.0 mg/kg/injection, schedule: Q01DX009 (ip), vehicle: saline 101 % of control | dose: 25.0 mg/kg/injection, schedule: Q04DX003 (ip), vehicle: saline 94 % of control | dose: 40.0 mg/kg/injection, schedule: Q01DX001 (ip), vehicle: saline 100 % of control | dose: 50.0 mg/kg/injection, schedule: Q01DX009 (ip), vehicle: saline 106 % of control | dose: 50.0 mg/kg/injection, schedule: Q04DX003 (ip), vehicle: saline 108 % of control | dose: 80.0 mg/kg/injection, schedule: Q01DX001 (ip), vehicle: saline 103 % of control

COc1cc(C(=O)NCC(=O)O)cc(OC)c1OC
inactive: [14] 86 % of control | [15] 107 % of control | [16] 86 % of control | [17] 98 % of control | dose: 400.0 mg/kg/injection, schedule: Q04DX003 (ip), vehicle: saline 95 % of control

CCCCCC(CN(C)C)C(=O)/C=C/c1c(Cl)cccc1Cl (configuration not stated)
inactive: [9] 106 % of control

Cc1nccn1-c1ccc(N=Cc2ccc(N(CCCl)CCCl)cc2Cl)cc1
inactive: dose: 62.5 mg/kg/injection, schedule: Q04DX002 (ip), vehicle: Klucel (hydroxypropylcellulose) (HPC) 102 % of control | dose: 125.0 mg/kg/injection, schedule: Q04DX002 (ip), vehicle: Klucel (hydroxypropylcellulose) (HPC) 98 % of control | dose: 250.0 mg/kg/injection, schedule: Q04DX002 (ip), vehicle: Klucel (hydroxypropylcellulose) (HPC) 106 % of control

O=Cc1cn(C2CC(O)C(CO)O2)c(=O)[nH]c1=O (configuration not stated)
inactive: [10] 117 % of control | dose: 50.0 mg/kg/injection, schedule: Q04DX003 (ip), vehicle: saline with Tween-80 103 % of control | dose: 100.0 mg/kg/injection, schedule: Q01DX005 (ip), vehicle: saline 108 % of control | [1] 99 % of control | dose: 200.0 mg/kg/injection, schedule: Q01DX005 (ip), vehicle: saline 110 % of control | [2] 102 % of control | [8] 114 % of control | [3] 96 % of control

Cc1cc(C)c(C(=O)O)c(C)c1Br
inactive: dose: 50.0 mg/kg/injection, schedule: Q01DX001 (ip), vehicle: other 98 % of control | dose: 100.0 mg/kg/injection, schedule: Q01DX001 (ip), vehicle: other 104 % of control | [1] 96 % of control | dose: 200.0 mg/kg/injection, schedule: Q01DX001 (ip), vehicle: other 96 % of control | [2] 94 % of control | dose: 400.0 mg/kg/injection, schedule: Q01DX001 (ip), vehicle: other 111 % of control | [3] 103 % of control

c1ccc(OP(Oc2ccccc2)c2ccccc2)cc1
inactive: [14] 108 % of control | [5] 105 % of control | [16] 115 % of control | [7] 102 % of control | dose: 400.0 mg/kg/injection, schedule: Q04DX003 (ip), vehicle: Klucel (hydroxypropylcellulose) (HPC) 98 % of control

CCCC(CCC#N)C(=O)c1ccccc1 (configuration not stated)
inactive: dose: 100.0 mg/kg/injection, schedule: Q01DX001 (ip), vehicle: Klucel (hydroxypropylcellulose) (HPC) 91 % of control | dose: 200.0 mg/kg/injection, schedule: Q01DX001 (ip), vehicle: Klucel (hydroxypropylcellulose) (HPC) 98 % of control | dose: 400.0 mg/kg/injection, schedule: Q01DX001 (ip), vehicle: Klucel (hydroxypropylcellulose) (HPC) 95 % of control

COc1ccc(-c2cccc(-c3ccccc3)n2)cc1
inactive: dose: 12.5 mg/kg/injection, schedule: Q04DX003 (ip), vehicle: Klucel (hydroxypropylcellulose) (HPC) 91 % of control | [9] 106 % of control | dose: 25.0 mg/kg/injection, schedule: Q04DX003 (ip), vehicle: Klucel (hydroxypropylcellulose) (HPC) 98 % of control | [10] 100 % of control | dose: 50.0 mg/kg/injection, schedule: Q04DX003 (ip), vehicle: Klucel (hydroxypropylcellulose) (HPC) 98 % of control | [4] 89 % of control | [5] 96 % of control

N#[N+]c1c(O)cc(S(=O)(=O)O)c2ccccc12
inactive: [14] 92 % of control | [15] 94 % of control | [17] 101 % of control
